Measured values published in ChEMBL document CHEMBL4715829, “Heterodimeric Rifampicin-Tobramycin conjugates break intrinsic resistance of Pseudomonas aeruginosa to doxycycline and chloramphenicol in vitro and in a Galleria mellonella in vivo model” (Eur J Med Chem, 2019).

Key:
[1] = system: Staphylococcus epidermidis; assay: Antibacterial activity against methicillin-susceptible Staphylococcus epidermidis CANWARD 81388 assessed as reduction in bacterial growth incubated for 18 hrs by broth microdilution assay; type: functional
[2] = system: Escherichia coli; assay: Antibacterial activity against gentamicin-resistant Escherichia coli CAN-ICU 61714 assessed as reduction in bacterial growth incubated for 18 hrs by broth microdilution assay; type: functional
[3] = system: Escherichia coli; assay: Antibacterial activity against Escherichia coli CAN-ICU 63074 (AMK 32) assessed as reduction in bacterial growth incubated for 18 hrs by broth microdilution assay; type: functional
[4] = system: Escherichia coli; assay: Antibacterial activity against gentamicin, tobramycin, ciprofloxacin-resistant Escherichia coli ATCC 97615 harboring aac(3')IIa gene assessed as reduction in bacterial growth incubated for 18 hrs by broth microdilution assay; type: functional
[5] = system: Pseudomonas aeruginosa; assay: Antibacterial activity against gentamicin-resistant Pseudomonas aeruginosa CAN-ICU 62308 assessed as reduction in bacterial growth incubated for 18 hrs by broth microdilution assay; type: functional
[6] = system: Acinetobacter baumannii; assay: Antibacterial activity against Acinetobacter baumannii CAN-ICU 63169 assessed as reduction in bacterial growth incubated for 18 hrs by broth microdilution assay; type: functional
[7] = system: Klebsiella pneumoniae; assay: Antibacterial activity against Klebsiella pneumoniae ATCC 13883 assessed as reduction in bacterial growth incubated for 18 hrs by broth microdilution assay; type: functional
[8] = system: Pseudomonas aeruginosa; assay: Antibacterial activity against Pseudomonas aeruginosa PAO1 assessed as reduction in bacterial growth by measuring cefotaxime MIC at <=[…] uM in presence of cefotaxime incubated for 18 hrs by broth microdilution assay based checkerboard assay (reference value: […] microg/ml); type: functional; details: dose microM <=10
[9] = system: Pseudomonas aeruginosa; assay: Antibacterial activity against Pseudomonas aeruginosa PAO1 assessed as reduction in bacterial growth by measuring doxycycline MIC at <=[…] uM in presence of doxycycline incubated for 18 hrs by broth microdilution assay based checkerboard assay (reference value: […] microg/ml); type: functional; details: dose microM <=10
[10] = system: Pseudomonas aeruginosa; assay: Antibacterial activity against Pseudomonas aeruginosa PAO1 assessed as reduction in bacterial growth by measuring linezolid MIC at <=10 uM in presence of linezolid incubated for 18 hrs by broth microdilution assay based checkerboard assay (reference value: 1024 microg/ml); type: functional; details: dose microM <=10
[11] = system: Pseudomonas aeruginosa; assay: Antibacterial activity against Pseudomonas aeruginosa PAO1 assessed as reduction in bacterial growth by measuring moxifloxacin MIC at <=10 uM in presence of moxifloxacin incubated for 18 hrs by broth microdilution assay based checkerboard assay (reference value: 1 microg/ml); type: functional; details: dose microM <=10
[12] = system: Pseudomonas aeruginosa; assay: Antibacterial activity against Pseudomonas aeruginosa PAO1 assessed as reduction in bacterial growth by measuring trimethoprim MIC at <=10 uM in presence of trimethoprim incubated for 18 hrs by broth microdilution assay based checkerboard assay (reference value: 64 microg/ml); type: functional; details: dose microM <=10
[13] = system: Pseudomonas aeruginosa; assay: Antibacterial activity against Pseudomonas aeruginosa PAO1 assessed as reduction in bacterial growth by measuring ceftazidime MIC at <=10 uM in presence of ceftazidime incubated for 18 hrs by broth microdilution assay based checkerboard assay (reference value: 2 microg/ml); type: functional; details: dose microM <=10
[14] = system: Pseudomonas aeruginosa; assay: Antibacterial activity against Pseudomonas aeruginosa PAO1 assessed as reduction in bacterial growth by measuring fosfomycin MIC at <=[…] uM in presence of fosfomycin incubated for 18 hrs by broth microdilution assay based checkerboard assay (reference value: […] microg/ml); type: functional; details: dose microM <=10
[15] = system: Pseudomonas aeruginosa; assay: Antibacterial activity against Pseudomonas aeruginosa PAO1 assessed as reduction in bacterial growth by measuring nitrofurantoin MIC at <=10 uM in presence of nitrofurantoin incubated for 18 hrs by broth microdilution assay based checkerboard assay (reference value: 512 microg/ml); type: functional; details: dose microM <=10
[16] = system: Pseudomonas aeruginosa; assay: Antibacterial activity against Pseudomonas aeruginosa PAO1 assessed as reduction in bacterial growth by measuring chloramphenicol MIC at <=[…] uM in presence of chloramphenicol incubated for 18 hrs by broth microdilution assay based checkerboard assay (reference value: […] microg/ml); type: functional; details: dose microM <=10
[17] = system: Pseudomonas aeruginosa; assay: Antibacterial activity against Pseudomonas aeruginosa PAO1 assessed as reduction in bacterial growth by measuring erythromycin MIC at <=10 uM in presence of erythromycin incubated for 18 hrs by broth microdilution assay based checkerboard assay (reference value: 256 microg/ml); type: functional; details: dose microM <=10
[18] = system: Pseudomonas aeruginosa; assay: Antibacterial activity against Pseudomonas aeruginosa PAO1 assessed as fractional inhibitory concentration index in presence of Rifampicin incubated for 18 hrs by broth microdilution assay based checkerboard assay; type: functional
[19] = system: Pseudomonas aeruginosa; assay: Antibacterial activity against Pseudomonas aeruginosa PAO1 assessed as fractional inhibitory concentration index in presence of Tobramycin incubated for 18 hrs by broth microdilution assay based checkerboard assay; type: functional
[20] = system: Pseudomonas aeruginosa; assay: Antibacterial activity against Pseudomonas aeruginosa PAO1 assessed as fractional inhibitory concentration index in presence of Minocycline incubated for 18 hrs by broth microdilution assay based checkerboard assay; type: functional
[21] = system: Pseudomonas aeruginosa; assay: Antibacterial activity against Pseudomonas aeruginosa PAO1 assessed as fractional inhibitory concentration index in presence of Moxifloxacin incubated for 18 hrs by broth microdilution assay based checkerboard assay; type: functional
[22] = system: Pseudomonas aeruginosa; assay: Antibacterial activity against Pseudomonas aeruginosa PAO1 assessed as fractional inhibitory concentration index in presence of Trimethoprim incubated for 18 hrs by broth microdilution assay based checkerboard assay; type: functional
[23] = system: Pseudomonas aeruginosa; assay: Antibacterial activity against Pseudomonas aeruginosa PAO1 assessed as fractional inhibitory concentration index in presence of Vancomycin incubated for 18 hrs by broth microdilution assay based checkerboard assay; type: functional
[24] = system: Pseudomonas aeruginosa; assay: Antibacterial activity against Pseudomonas aeruginosa PAO1 assessed as fractional inhibitory concentration index in presence of Nitrofurantoin incubated for 18 hrs by broth microdilution assay based checkerboard assay; type: functional
[25] = system: Pseudomonas aeruginosa; assay: Antibacterial activity against Pseudomonas aeruginosa PAO1 assessed as fractional inhibitory concentration index in presence of Erythromycin incubated for 18 hrs by broth microdilution assay based checkerboard assay; type: functional
[26] = system: Pseudomonas aeruginosa; assay: Antibacterial activity against Pseudomonas aeruginosa PAO1 assessed as fractional inhibitory concentration index in presence of Novobiocin incubated for 18 hrs by broth microdilution assay based checkerboard assay; type: functional
[27] = system: Pseudomonas aeruginosa; assay: Antibacterial activity against Pseudomonas aeruginosa PAO1 assessed as fractional inhibitory concentration index in presence of Colistin incubated for 18 hrs by broth microdilution assay based checkerboard assay; type: functional
[28] = system: Pseudomonas aeruginosa; assay: Antibacterial activity against Pseudomonas aeruginosa 101243 assessed as fractional inhibitory concentration index in presence of doxycycline incubated for 18 hrs by broth microdilution assay; type: functional
[29] = system: Pseudomonas aeruginosa; assay: Antibacterial activity against Pseudomonas aeruginosa 101243 assessed as fractional inhibitory concentration index in presence of chloramphenicol incubated for 18 hrs by broth microdilution assay; type: functional
[30] = system: Pseudomonas aeruginosa; assay: Antibacterial activity against Pseudomonas aeruginosa 259-96918 assessed as fractional inhibitory concentration index in presence of chloramphenicol incubated for 18 hrs by broth microdilution assay; type: functional
[31] = system: Pseudomonas aeruginosa; assay: Antibacterial activity against Pseudomonas aeruginosa 260-97103 assessed as fractional inhibitory concentration index in presence of chloramphenicol incubated for 18 hrs by broth microdilution assay; type: functional
[32] = system: Pseudomonas aeruginosa; assay: Antibacterial activity against Pseudomonas aeruginosa 91433 assessed as fractional inhibitory concentration index in presence of doxycycline incubated for 18 hrs by broth microdilution assay; type: functional
[33] = system: Pseudomonas aeruginosa; assay: Antibacterial activity against Pseudomonas aeruginosa 91433 assessed as fractional inhibitory concentration index in presence of chloramphenicol incubated for 18 hrs by broth microdilution assay; type: functional
[34] = Cytotoxicity against human HEK293 cells assessed as cell viability at 50 uM incubated for 48 hrs by prestoblue assay; type: cell-based; details: read-out: Activity
[35] = system: Pseudomonas aeruginosa; assay: Antibacterial activity against Pseudomonas aeruginosa 91433 assessed as reduction in bacterial growth incubated for 18 hrs by broth microdilution assay; type: functional

## CO[C@H]1/C=C/O[C@@]2(C)Oc3c(C)c(O)c4c(O)c(c(/C=N/N5CCN(Cc6cn(CCCCCCO[C@@H]7[C@@H](O[C@H]8O[C@H](CO)[C@@H](O)[C@H](N)[C@H]8O)[C@H](N)C[C@H](N)[C@H]7O[C@H]7O[C@H](CN)[C@@H](O)C[C@H]7N)nn6)CC5)c(O)c4c3C2=O)NC(=O)/C(C)=C\C=C\[C@H](C)[C@H](O)[C@@H](C)[C@@H](O)[C@@H](C)[C@H](OC(C)=O)[C@@H]1C.Cl.Cl.Cl.Cl.Cl
[1]
  MIC: 4 µg/mL
[2]
  MIC: > 32 µg/mL
[3]
  MIC: > 32 µg/mL
[4]
  MIC: > 32 µg/mL
[5]
  MIC: > 32 µg/mL
[6]
  MIC: > 32 µg/mL
[7]
  MIC: > 32 µg/mL
[8]
  MIC: 16 µg/mL
[9]
  MIC: 0.5 µg/mL
[10]
  MIC: 128 µg/mL
[11]
  MIC: 0.5 µg/mL
[12]
  MIC: 32 µg/mL
[13]
  MIC: 2 µg/mL
[14]
  MIC: 2 µg/mL
[15]
  MIC: 256 µg/mL
[16]
  MIC: 1 µg/mL
[17]
  MIC: 32 µg/mL
[18]
  fractional inhibitory concentration index (FICI): 0.28
[19]
  fractional inhibitory concentration index (FICI): 1.03
[20]
  fractional inhibitory concentration index (FICI): 0.28
[21]
  fractional inhibitory concentration index (FICI): 0.53
[22]
  fractional inhibitory concentration index (FICI): 0.53
[23]
  fractional inhibitory concentration index (FICI): 1.03
[24]
  fractional inhibitory concentration index (FICI): 0.53
[25]
  fractional inhibitory concentration index (FICI): 0.15
[26]
  fractional inhibitory concentration index (FICI): 0.28
[27]
  fractional inhibitory concentration index (FICI): 0.53
[28]
  fractional inhibitory concentration index (FICI): 0.125
[29]
  fractional inhibitory concentration index (FICI): 0.187
[30]
  fractional inhibitory concentration index (FICI): <0.375
[31]
  fractional inhibitory concentration index (FICI): <0.141
[32]
  fractional inhibitory concentration index (FICI): 0.25
[33]
  fractional inhibitory concentration index (FICI): 0.375
[34]
  viability at 48 h, 50 µM: > 70%
[35]
  MIC: > 128 µg/mL

## CO[C@H]1/C=C/O[C@@]2(C)Oc3c(C)c(O)c4c(O)c(c(/C=N/N5CCN(Cc6cn(CCCCO[C@@H]7[C@@H](O[C@H]8O[C@H](CO)[C@@H](O)[C@H](N)[C@H]8O)[C@H](N)C[C@H](N)[C@H]7O[C@H]7O[C@H](CN)[C@@H](O)C[C@H]7N)nn6)CC5)c(O)c4c3C2=O)NC(=O)/C(C)=C\C=C\[C@H](C)[C@H](O)[C@@H](C)[C@@H](O)[C@@H](C)[C@H](OC(C)=O)[C@@H]1C.O=C(O)C(F)(F)F.O=C(O)C(F)(F)F.O=C(O)C(F)(F)F.O=C(O)C(F)(F)F.O=C(O)C(F)(F)F
[1]
  MIC: 2 µg/mL
[2]
  MIC: > 32 µg/mL
[3]
  MIC: > 32 µg/mL
[4]
  MIC: > 32 µg/mL
[5]
  MIC: > 32 µg/mL
[6]
  MIC: > 32 µg/mL
[7]
  MIC: > 32 µg/mL
[8]
  MIC: 16 µg/mL
[9]
  MIC: 1 µg/mL
[10]
  MIC: 1020 µg/mL
[11]
  MIC: 1 µg/mL
[12]
  MIC: 64 µg/mL
[13]
  MIC: 2 µg/mL
[14]
  MIC: 16 µg/mL
[15]
  MIC: 512 µg/mL
[16]
  MIC: 8 µg/mL
[17]
  MIC: 128 µg/mL
[18]
  fractional inhibitory concentration index (FICI): 0.28
[19]
  fractional inhibitory concentration index (FICI): 1.03
[20]
  fractional inhibitory concentration index (FICI): 0.26
[21]
  fractional inhibitory concentration index (FICI): 1.03
[22]
  fractional inhibitory concentration index (FICI): 1.03
[23]
  fractional inhibitory concentration index (FICI): 1.03
[24]
  fractional inhibitory concentration index (FICI): 1
[25]
  fractional inhibitory concentration index (FICI): 0.53
[26]
  fractional inhibitory concentration index (FICI): 0.53
[27]
  fractional inhibitory concentration index (FICI): 0.53
[34]
  viability at 48 h, 50 µM: > 70%
[35]
  MIC: > 128 µg/mL
